These results are taken from article PMC5443783, “Prostaglandin E2 glyceryl ester is an endogenous agonist of the nucleotide receptor P2Y6” (Scientific Reports, 2017).

One experiment concerns the target P2Y6 (Homo sapiens, UniProt Q15077). Description: cAMP-inhibition assay in P2RY6-transfected HEK293 cells. Set-up: expressed in transfected cells; host or cells: HEK293. The note with it: P2RY6-transfected HEK293, 2.5 µM forskolin, Fig. 3c; read-out: EC50, suppression of cAMP formation. The class given is cell-based. How it is done:
After transfection (72 h), cells were washed once with DMEM/F12 containing 1 mM 3-isobutyl-methyl-xanthine (IBMX) followed by incubation in the presence of the indicated compounds and forskolin (2.5 µM) for 15 min at 37 °C. The final concentration of DMSO was 1%. Cells were lysed in 25 μl lysis buffer (5 mM HEPES; 0.1% BSA; 0.3% Tween20; 1 mM IBMX; pH 7.4) and kept frozen at −20 °C until measurement. To measure cAMP concentration, the AlphaScreen cAMP assay kit (PerkinElmer Life Sciences) was used according to the manufacturer’s protocol.
Background: Cyclic AMP is a second messenger, typically raised through Gs and lowered through Gi signalling.

For the next experiment, the system named is 78 orphan GPCRs. Description: PathHunter β-Arrestin Orphan GPCR cell line panel, whole panel. Type of experiment: cell-based. Conditions: β-arrestin recruitment. An excerpt: For screening orphan GPCRs as possible targets for PGE2-G, the PathHunter® β-Arrestin assay (DiscoveRx Co., USA) was used. It monitors the activation of a GPCR by utilizing an enzyme fragment complementation assay with β-galactosidase as the functional reporter. Briefly, the enzyme is split into two complementary portions expressed as fusion proteins in the cell. The enzyme acceptor is fused to β2-arrestin, and the ProLink donor peptide is fused to the GPCR of interest. Upon GPCR stimulation, β2-arrestin is recruited to the receptor, bringing the two fragments of β-galactosidase together. This generates an active enzyme that can convert a chemiluminescent substrate, generating a signal detectable on a standard microplate reader (see manufacturer’s instructions). In total, 78 GPCRs, previously considered orphan and individually transfected into cells, were screened by DiscoveRx (Supplementary Table S1). The percentage activity given in the results is calculated using the following formula: % activity = 100% × (mean RLU of test sample - mean RLU of vehicle control)/mean RLU of vehicle control).

Usually EC50 stands for the midpoint of the concentration-response curve.

Sequence of P2Y6 (Q15077 whole entry): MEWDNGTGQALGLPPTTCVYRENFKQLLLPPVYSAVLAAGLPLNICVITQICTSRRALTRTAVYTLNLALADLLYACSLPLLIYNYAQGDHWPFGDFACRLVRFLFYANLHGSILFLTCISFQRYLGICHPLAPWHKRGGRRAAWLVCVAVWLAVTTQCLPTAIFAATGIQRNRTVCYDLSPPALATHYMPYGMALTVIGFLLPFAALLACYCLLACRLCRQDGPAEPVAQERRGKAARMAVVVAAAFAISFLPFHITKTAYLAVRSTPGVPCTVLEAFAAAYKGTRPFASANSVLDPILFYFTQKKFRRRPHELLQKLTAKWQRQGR

On to `O=c1ccn([C@@H]2O[C@H](COP(=O)(O)OP(=O)(O)O)[C@@H](O)[C@H]2O)c(=O)[nH]1` [UDP], for which the EC50 at P2Y6 is 3.6 ± 0.3 nM. In the case of “Prostaglandin E2 glyceryl ester [PGE2-G]”, the “response of orphan GPCRs” value in the experiment on 78 orphan GPCRs is listed as “None of the tested receptors demonstrated a positive response”.
